In patent publication US11174232B2, “Substituted heterocyclyl derivatives as CDK inhibitors” (Aurigene Discovery Technologies Limited, priority 2015, dated 2021):
pIC50: −log10 of the molar value.

Molecular target: CDK7/CycH/MNAT1 (Homo sapiens (Human), UniProt P50613)
Experiment: Biochemical Assay for CDK7 (TR-FRET kinase assay)
Details: 60 min pre-incubation with kinase, 1 mM ATP; for inhibition at 10 µM / % inhibition @ 10 μM: 10 μM compound
Experimental: Biochemical Assay for CDK7:
The ability of compounds to inhibit CDK7 kinase activity was tested in a TR-FRET assay using 5 nM of CDK7/CycH/MNAT1 obtained from Invitrogen, USA. Test compounds were pre-incubated with the kinase at room temperature for 60 min. After the incubation, substrate mix [100 nM Ultra-light MBP (Perkin Elmer, USA) and 1 mM ATP (Sigma)] was added. The above reaction was stopped by the addition of 40 mM EDTA after 60 minutes of kinase reaction. 1 nM Eu-labelled antiphospho-MBP antibody [Perkin Elmer, USA] was added, mixed well and the fluorescence emission at 615 nm and 665 nm [excitation at 340 nm] was measured. The final DMSO concentration in the assay was 1%. For IC50 determination, appropriate concentrations were made by ⅓^rd serial dilutions of 10 mM DMSO stock solution of test compound. All the fluorescence measurements were made in a Victor 3 Multilabel Counter [Perkin Elmer, USA]. The IC50 was determined by fitting the dose response data to sigmoidal curve fitting equation using GraphPad Prism software V5. To identify compounds that inhibit CDK7 irreversibly, time depended inhibition studies were carried by pre-incubating compound with the enzyme at three time points (20, 60 and 180 min) and carrying out assay as described above.
The compounds were screened by the above mentioned assay procedure.

Sequence of CDK7/CycH/MNAT1 (P50613 whole entry): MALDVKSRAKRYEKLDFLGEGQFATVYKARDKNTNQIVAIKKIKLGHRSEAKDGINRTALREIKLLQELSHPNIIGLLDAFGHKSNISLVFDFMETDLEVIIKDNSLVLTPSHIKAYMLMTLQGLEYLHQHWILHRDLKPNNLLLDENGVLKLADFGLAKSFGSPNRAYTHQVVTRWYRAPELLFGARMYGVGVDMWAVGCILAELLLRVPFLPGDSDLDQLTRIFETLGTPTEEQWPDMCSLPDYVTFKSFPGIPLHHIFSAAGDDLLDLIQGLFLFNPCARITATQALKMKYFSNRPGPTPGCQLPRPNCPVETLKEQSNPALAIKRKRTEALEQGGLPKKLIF
Sequence of CDK7/CycH/MNAT1 (P51946 whole entry partner): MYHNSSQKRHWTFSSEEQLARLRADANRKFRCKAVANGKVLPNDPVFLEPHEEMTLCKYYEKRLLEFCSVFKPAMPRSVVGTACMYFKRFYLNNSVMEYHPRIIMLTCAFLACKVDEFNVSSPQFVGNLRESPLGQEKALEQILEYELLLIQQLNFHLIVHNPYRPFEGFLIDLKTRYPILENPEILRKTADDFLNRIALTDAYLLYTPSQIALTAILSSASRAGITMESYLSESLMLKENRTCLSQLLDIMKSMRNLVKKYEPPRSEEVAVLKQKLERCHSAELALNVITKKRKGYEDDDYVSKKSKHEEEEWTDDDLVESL
Sequence of CDK7/CycH/MNAT1 (P51948 whole entry partner): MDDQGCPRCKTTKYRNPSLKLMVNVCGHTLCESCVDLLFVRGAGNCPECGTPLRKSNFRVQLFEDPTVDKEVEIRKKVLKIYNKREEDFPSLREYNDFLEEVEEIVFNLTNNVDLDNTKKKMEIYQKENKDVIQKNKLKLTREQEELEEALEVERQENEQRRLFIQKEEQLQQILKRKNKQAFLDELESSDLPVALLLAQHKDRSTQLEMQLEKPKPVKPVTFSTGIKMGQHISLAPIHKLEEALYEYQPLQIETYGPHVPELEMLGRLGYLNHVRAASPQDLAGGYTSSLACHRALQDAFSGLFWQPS

Compound	inhibition at 10 µM [%]	pIC50	% inhibition @ 10 μM [%]
CC(C(=O)Nc1cc(C2CC2)[nH]n1)c1cccc(-c2ccc(NC(=O)/C=C/CN3CCOCC3)cn2)c1 (stereo not drawn) [Compound 35, (E)-N-(6-(3-(1-((5-cyclopropyl-1H-pyrazol-3-yl)amino)-1-oxopropan-2-yl)phenyl)pyridin-3-yl)-4-morpholinobut-2-enamide]	86	< 7.00	
CC(C(=O)Nc1cc(C2CC2)[nH]n1)c1cccc(C2=CCN(C(=O)/C=C/CN(C)C)CC2)c1 (stereo not drawn) [Compound 84, (E)-N-(5-cyclopropyl-1H-pyrazol-3-yl)-2-(3-(1-(4-(dimethylamino)but-2-enoyl)-1,2,3,6-tetrahydropyridin-4-yl)phenyl)propanamide]	88	< 7.00	
CC(C(=O)Nc1cc(C2CC2)[nH]n1)c1cccc(-c2ccc(NC(=O)/C=C/CN3CC[C@H](F)C3)nc2)c1 (single isomer, unassigned) [Compound 48]		7.00 to 7.60	90
CN(C)C/C=C/C(=O)Nc1ccc(C(=O)Nc2cccc(Nc3n[nH]c4ccccc34)c2)cc1 [Compound 89, (E)-N-(3-((1H-indazol-3-yl)amino)phenyl)-4-(4-(dimethylamino)but-2-enamido)benzamide]	45		
C=CC(=O)Nc1c(C)cc(-c2cccc(C(C)C(=O)Nc3cc(C4CC4)[nH]n3)c2)cc1C (stereo not drawn) [Compound 67, N-(3′-(1-((5-cyclopropyl-1H-pyrazol-3-yl)amino)-1-oxopropan-2-yl)-3,5-dimethyl-[1,1′-biphenyl]-4-yl)acrylamide]	79	< 7.00	
CC(C(=O)Nc1cc(C2CC2)[nH]n1)c1cccc(-c2ccc(NC(=O)/C=C/CN3CC[C@H](F)C3)c(F)c2)c1 (stereo partly drawn) [Compound 80, (E)-N-(3′-(1-((5-cyclopropyl-1H-pyrazol-3-yl)amino)-1-oxopropan-2-yl)-3-fluoro-[1,1′-biphenyl]-4-yl)-4-((S)-3-fluoropyrrolidin-1-yl)but-2-enamide]	95	7.00 to 7.60	
C=CC(=O)Nc1ccc(-c2cccc(C(C)C(=O)Nc3cc(C4CC4)[nH]n3)c2)c(OC)c1 (stereo not drawn) [Compound 73, N-(3′-(1-((5-cyclopropyl-1H-pyrazol-3-yl)amino)-1-oxopropan-2-yl)-2-methoxy-[1,1′-biphenyl]-4-yl)acrylamide]	91	< 7.00	
C=CC(=O)Nc1ccc(-c2cccc(C(C)C(=O)Nc3cc(C4CC4)[nH]n3)c2)cc1F (stereo not drawn) [Compound 19, N-(3′-(1-((5-cyclopropyl-1H-pyrazol-3-yl)amino)-1-oxopropan-2-yl)-3-fluoro-[1,1′-biphenyl]-4-yl)acrylamide]	97	7.00 to 7.60	
CC(C(=O)Nc1cc(C2CC2)[nH]n1)c1cccc(-c2ccc(NC(=O)/C=C/CN3CCC(C#N)C3)nc2)c1 (stereo not drawn) [Compound 78, (E)-4-(3-cyanopyrrolidin-1-yl)-N-(5-(3-(1-((5-cyclopropyl-1H-pyrazol-3-yl)amino)-1-oxopropan-2-yl)phenyl)pyridin-2-yl)but-2-enamide]	100	7.00 to 7.60	
C=CC(=O)Nc1ccc(-c2cccc(C(C)C(=O)Nc3cc(C4CC4)[nH]n3)c2)cc1 (stereo not drawn) [Compound 18, N-(3′-(1-((5-cyclopropyl-1H-pyrazol-3-yl)amino)-1-oxopropan-2-yl)-[1,1′-biphenyl]-4-yl)acrylamide]	95	< 7.00	
COC/C=C/C(=O)Nc1ccc(-c2cccc(C(C)C(=O)Nc3cc(C4CC4)[nH]n3)c2)cn1 (stereo not drawn) [Compound 41, (E)-N-(5-(3-(1-((5-cyclopropyl-1H-pyrazol-3-yl)amino)-1-oxopropan-2-yl)phenyl)pyridin-2-yl)-4-methoxybut-2-enamide]	90	< 7.00	
CC(C(=O)Nc1cc(C2CC2)[nH]n1)c1cccc(-c2ccc(NC(=O)/C=C/CN3CCOCC3)nc2F)c1 (stereo not drawn) [Compound 59, (E)-N-(5-(3-(1-((5-cyclopropyl-1H-pyrazol-3-yl)amino)-1-oxopropan-2-yl)phenyl)-6-fluoropyridin-2-yl)-4-morpholinobut-2-enamide]	99	7.00 to 7.60	
CCC(C(=O)Nc1cc(C2CC2)[nH]n1)c1cccc(-c2ccc(NC(=O)/C=C/CN(C)C)cc2)c1 (stereo not drawn) [Compound 13, (E)-N-(3′-(1-((5-cyclopropyl-1H-pyrazol-3-yl)amino)-1-oxobutan-2-yl)-[1,1′-biphenyl]-4-yl)-4-(dimethylamino)but-2-enamide]	97	7.00 to 7.60	
CC(C)(C(=O)Nc1cc(C2CC2)[nH]n1)c1cccc(-c2ccc(NC(=O)/C=C/CN3CCCC3)nc2)c1 [Compound 95, (E)-N-(5-(3-(1-((5-cyclopropyl-1H-pyrazol-3-yl)amino)-2-methyl-1-oxopropan-2-yl)phenyl)pyridin-2-yl)-4-(pyrrolidin-1-yl)but-2-enamide]	71	< 7.00	
C=CC(=O)Nc1ccc(-c2cccc(C(C)C(=O)Nc3cc(C4CC4)[nH]n3)c2)cc1OC (stereo not drawn) [Compound 65, N-(3′-(1-((5-cyclopropyl-1H-pyrazol-3-yl)amino)-1-oxopropan-2-yl)-3-methoxy-[1,1′-biphenyl]-4-yl)acrylamide]	94	< 7.00	

Second part, the molecule after the results:

inhibition at 10 µM [%]	pIC50	% inhibition @ 10 μM [%]	Compound
87	7.00 to 7.60		CC(C(=O)Nc1cc(C2CC2)[nH]n1)c1cccc(-c2ccc(NC(=O)/C=C/Cn3ccnc3)nc2)c1 (stereo not drawn) [Compound 69, (E)-N-(5-(3-(1-((5-cyclopropyl-1H-pyrazol-3-yl)amino)-1-oxopropan-2-yl)phenyl)pyridin-2-yl)-4-(1H-imidazol-1-yl)but-2-enamide]
81	7.00 to 7.60		COC[C@@H]1CCCN1C/C=C/C(=O)Nc1ccc(-c2cccc(C(C)C(=O)Nc3cc(C4CC4)[nH]n3)c2)cn1 (stereo partly drawn) [Compound 70, (E)-N-(5-(3-(1-((5-cyclopropyl-1H-pyrazol-3-yl)amino)-1-oxopropan-2-yl)phenyl)pyridin-2-yl)-4-((S)-2-(methoxymethyl)pyrrolidin-1-yl)but-2-enamide]
95	7.00 to 7.60		CC(C(=O)Nc1cc(C2CC2)[nH]n1)c1cccc(-c2ccc(NC(=O)/C=C/CN(C)C)cn2)c1 (stereo not drawn) [Compound 16, (E)-N-(6-(3-(1-((5-cyclopropyl-1H-pyrazol-3-yl)amino)-1-oxopropan-2-yl)phenyl)pyridin-3-yl)-4-(dimethylamino)but-2-enamide]
98	> 7.60		C=CC(=O)N1CCc2cc(-c3cccc(C(C)C(=O)Nc4cc(C5CC5)[nH]n4)c3)ccc21 (stereo not drawn) [Compound 76, 2-(3-(1-acryloylindolin-5-yl)phenyl)-N-(5-cyclopropyl-1H-pyrazol-3-yl)propanamide]
102	> 7.60		C=CC(=O)Nc1cncc(-c2cccc(C(C)C(=O)Nc3cc(C4CC4)[nH]n3)c2)n1 (stereo not drawn) [Compound 79, N-(6-(3-(1-((5-cyclopropyl-1H-pyrazol-3-yl)amino)-1-oxopropan-2-yl)phenyl)pyrazin-2-yl)acrylamide]
	> 7.60	100	CC(C(=O)Nc1cc(C2CC2)[nH]n1)c1cccc(-c2ccc(NC(=O)/C=C/CN3CCCC3)nc2)c1 (single isomer, unassigned) [Compound 53, (E)-N-(5-(3-(1-((5-cyclopropyl-1H-pyrazol-3-yl)amino)-1-oxopropan-2-yl)-phenyl)pyridin-2-yl)-4-(pyrrolidin-1-yl)but-2-enamide]
95	> 7.60		CC(C(=O)Nc1cc(C2CC2)[nH]n1)c1cccc(-c2ccc(NC(=O)/C=C/CN3CC[C@H](F)C3)nc2)c1 (stereo partly drawn) [Compound 46, (E)-N-(5-(3-(1-((5-cyclopropyl-1H-pyrazol-3-yl)amino)-1-oxopropan-2-yl)phenyl)pyridin-2-yl)-4-((S)-3-fluoropyrrolidin-1-yl)but-2-enamide]
	> 7.60	98	CC(C(=O)Nc1cc(C2CC2)[nH]n1)c1cccc(-c2ccc(NC(=O)/C=C/CN3CCOCC3)nc2)c1 (single isomer, unassigned) [Compound 12, (E)-N-(5-(3-(1-((5-cyclopropyl-1H-pyrazol-3-yl)amino)-1-oxopropan-2-yl)phenyl)pyridin-2-yl)-4-morpholinobut-2-enamide]
100	> 7.60		C=CC(=O)Nc1ccc(-c2cccc(C(C)C(=O)Nc3cc(C4CC4)[nH]n3)c2)cn1 (stereo not drawn) [Compound 20, N-(5-(3-(1-((5-cyclopropyl-1H-pyrazol-3-yl)amino)-1-oxopropan-2-yl)phenyl)pyridin-2-yl)acrylamide]
93	> 7.60		CC(C(=O)Nc1cc(C2CCC2)[nH]n1)c1cccc(-c2ccc(NC(=O)/C=C/CN(C)C)cc2)c1 (stereo not drawn) [Compound 15, (E)-N-(3′-(1-((5-cyclobutyl-1H-pyrazol-3-yl)amino)-1-oxopropan-2-yl)-[1,1′-biphenyl]-4-yl)-4-(dimethylamino)but-2-enamide]
99	> 7.60		CC(C(=O)Nc1cc(C2CC2)[nH]n1)c1cccc(-c2ccc(NC(=O)/C=C/CN3CCOCC3)nc2)c1 (stereo not drawn) [Compound 10, (E)-N-(5-(3-(1-((5-cyclopropyl-1H-pyrazol-3-yl)amino)-1-oxopropan-2-yl)phenyl)pyridin-2-yl)-4-morpholinobut-2-enamide]
